In patent US6849722B2, “Polymerized oligopeptide-surfactant chiral micelles” (Board of Supervisors of Louisiana State University and …, priority 1998, dated 2005):

What was measured:
[1] = Critical micelle concentration by surface tension measurement; type: physicochemical; settings: in pure water
Experimental: Table 1 compares the structural features and physicochemical properties of L-SUV and L-SUVV. The critical micelle concentration (“CMC”) for both chiral surfactants was measured by following a linear decrease in surface tension as surfactant concentration increased, up to a point. After this point, no appreciable change in surface tension was observed. The point of intersection of the two lines (the linear decrease and the flat line thereafter) was taken as the CMC of the surfactants. The greater hydrophobicity of L-SUVV compared to L-SUV gave the former a lower CMC. In addition, an increase in the molecular weight decreased the mobility of L-SUVV toward the injector end. Thus, L-SUVV eluted faster than L-SUV, as it was carried more rapidly by bulk electroosmotic flow (EOF) towards the detection window.
All surfactants in this study were synthesized according to the procedure of Wang, J.; Warner, I. M. Anal. Chem. 1994, 66, 3773-3776. […] The critical micelle concentrations of the surfactants were determined by surface tension measurements as previously described. […] These numbers were calculated from average molecular weights as determined by ultracentrifugation. All monomers and polymers used in this study were 99% pure or better, as determined from elemental analysis.

[2] = Effective electrophoretic mobility by capillary zone electrophoresis/indirect photometric detection; type: physicochemical; settings: 100 mM boric acid and 5 mM Na2B4O7, pH 8.0; NMS light-absorbing electrolyte
[3] = cited from earlier work

Substance	critical micelle concentration (CMC) [1] [mM]	effective electrophoretic mobility (μep) [2]	pKa [3]
sodium N-undecylenyl-L-valine-L-valine [L-U-Val-Val]	10	−1.2 × 10^−4 cm^−2 V^−1 s^−1	–
tris (hydroxymethyl)aminomethane	–	–	around 8
